The source of these data is US8512961B2, “Methods of detecting and treatment of cancers using Scutellaria barbata extract” (Bionovo, Inc., priority 2007, dated 2013).

One assay has as its system ROS. Kind of assay: ROS generation, staining with ROS-sensitive probe CM-H2DCFDA. The assay is classed as cell-based. The following applies: incubation of cells prior to addition of BZL101; SKBr3 cells.
The next assay relates to DNA. Kind of assay: DNA damage, comet formation. The following applies: for effect on comet formation induced by BZL101: cells pretreated prior to the addition of BZL101. The format is cell-based. From the text: There is a different fold increase of ROS levels in different cells treated with BZL101 compared to control untreated cells. It is of particular interest that the increase in ROS correlates well with the degree of DNA damage induced in these cells.
To further implicate ROS in the induction of DNA damage, comet formation in cells pretreated with the antioxidants NAC and pyruvate prior to the addition of BZL101 were examined.

Another assay concerns SKBr3 cells. Description: 8-oxoguanine, flow cytometry with avidin fluorescein. The following applies: cells pretreated prior to addition of BZL101. The assay is classed as cell-based, human. Here is the method:
To verify that BZL101 leads to oxidative DNA damage, it was determined whether the DNA of BZL101-treated cells contains 8-oxoguanine, the most ubiquitous marker of DNA oxidation. […] (See FIG. 9). […] (See FIG. 10). Analysis of the 8-oxoguanidine and apurininc/apyrimidinic (AP) bases in DNA. The Calbiochem kit was used for staining of the fixed and permeabilized cells with avidin fluorescein. Quantification of apurinic/[…] nucleotides in genomic DNA was performed using the DNA damage quantification kit from BioVision Research Products.

Each structure is given as a SMILES string.

On to `CC(=O)N[C@@H](CS)C(=O)O` [NAC, N-acetyl-cysteine], for which the “effect on BZL101-induced ROS generation” value in the assay with ROS is on record as “prevented most of the increase in ROS generation”. Moreover, the “effect on comet formation induced by BZL101” value with DNA is “significantly reduced the number of cells forming comets”. The “DNA damage repair in cancer cells” value in the assay on DNA (in the presence of the antioxidant, BZL101-treated cancer cells) is listed as “greatly accelerated”. In the assay with SKBr3 cells, the “effect on BZL101-induced increase in avidin binding (8-oxoguanine)” value was “completely abolished”.
With `CC1(C)N([O])C(c2ccccc2)=[N+]([O-])C1(C)C` [PTIO], in the assay on DNA, the “effect on comet formation induced by BZL101” value is on record as “no effect”.
